Consider 2 molecules from patent US20240041769A1, “COMPOSITIONS AND METHODS FOR DELIVERY OF ANTICANCER AGENTS WITH IMPROVED THERAPEUTIC INDEX” (NanoTech Pharma Inc., priority 2020, published 2024).

For data set [1] the following is noted: clinical studies, oral afatinib; cited from earlier work.
A short description of data set [2]: In-vivo pharmacokinetic study, intravenous. Further details: species or system BALB/c nude mice. Conditions: mice, free drug solutions. As for the experimental part:
In-vivo pharmacokinetic study of free afatinib and nintedanib combination (data not shown), and AFA/NIN-L (1:5 AFA:NIN molar ratio) were carried out in BALB/c nude mice. The preparation of the PEGylated AFA/NIN-L with TEA-SOS used as the trapping agent was described in the Experimental Method section. The mixture of afatinib and nintedanib free drug cocktail and PEGylated AFA/NIN-L with a molar ratio of 1:5 were administered intravenously via the tail vein into the mice and the plasma concentration of both AFA and NIN was monitored over time. Doses of the all drug formulations were 7.0 mg/kg of afatinib free base (10.3 mg/kg afatinib dimaleate) and 38.9 mg/kg of nintedanib free base (46.8 mg/kg nintedanib […]). After intravenous administration, blood was collected at multiple time points by cardiac puncture (3 mice per time point) and placed into EDTA coated micro containers. The samples were centrifuged to separate plasma, and plasma was transferred to another tube. Then, AFA and NIN plasma levels were quantified with LC-MS. PK parameters were then calculated from measured AFA and NIN plasma levels.

For the molecule `CN(C)C/C=C/C(=O)Nc1cc2c(Nc3ccc(F)c(Cl)c3)ncnc2cc1O[C@H]1CCOC1` [AFA, Afatinib], in data set [1], the “treatment-related grade ≥3 AE: diarrhea” value is given as 5.4-14.4%, the “treatment-related grade ≥3 AE: rash/acne” value is given as 9.7-16.2% and the “treatment-related grade ≥3 AE: stomatitis/mucositis” value was 5.4-8.7%. Moreover, the “elimination after IV administration” value in data set [2] is “rapidly eliminated”.

In the case of `COC(=O)c1ccc2c(c1)NC(=O)/C2=C(\Nc1ccc(N(C)C(=O)CN2CCN(C)CC2)cc1)c1ccccc1` [NIN, Nintedanib], the “elimination after IV administration” value in data set [2] is “rapidly eliminated”.
